Test systems include A549; ACHN; BT-549; COLO 205; HCT-15; HOP-62; HT-29; IGROV-1; K562; LOX IMVI; M14; MDA-MB-435; NCI-H226; NCI-H23; OVCAR-3; RPMI-8226; SK-MEL-28; SK-OV-3; SR; U-251.
Experiment in all cases: DTP human tumour cell line panel, 48 h

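Tested at 5 concentrations; 48 h exposure; 96-well plates; endpoints linearly interpolated, else capped at highest concentration. Abbreviation: GI50, concentration required for 50% inhibition of growth.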 Calls of active or inactive are those of the source. Cut-off read from the data, not from the text of the source: active = GI50 up to about 1.1 µM and inactive = higher.

In the case of `c1cc(C2N3CCCN2CC3)ccn1` (stereo not given), the GI50 is > 100 µM (inactive) in the assay with A549; > 100 µM (inactive) in the assay with ACHN; > 100 µM (inactive) with BT-549; > 100 µM (inactive) in the assay on COLO 205; above 100 µM in the assay on HCT-15; > 100 µM (inactive) in the assay on HOP-62. Further, the GI50 in the assay with HT-29 was > 100 µM (inactive); in the assay on IGROV-1 it was 96.6 µM (inactive); with K562, 28.2 µM (inactive); with LOX IMVI, 57.9 µM (inactive); in the assay on M14 it was 61.1 µM (inactive); with MDA-MB-435, 25.5 µM (inactive). The GI50 in the assay with NCI-H226 is > 100 µM (inactive); with NCI-H23, 68.2 µM (inactive); with OVCAR-3, 29.4 µM (inactive); in the assay on RPMI-8226, 24.1 µM (inactive); in the assay with SK-MEL-28 it was > 100 µM (inactive); in the assay with SK-OV-3 it was > 100 µM (inactive). Besides, the GI50 in the assay with SR is 49.9 µM (inactive); in the assay with U-251, 58.3 µM (inactive).

By GI50 is commonly meant the concentration at which growth is held to half of that of the control.
